Earlier results, collected in patent US20030198597A1, “Novel macrocyclic activatible magnetic resonance imaging contrast agents” (priority 2002, published 2003).

Conditions: thermodynamic stability of the Gd3+ chelate complex; background statement

stability constant (K) / formation constant, logK	SMILES
22.4	O=C([O-])CN(CCN(CC(=O)[O-])CC(=O)[O-])CCN(CC(=O)[O-])CC(=O)[O-].[Gd+3] [Gd(DTPA)^2−]
28.5	O=C([O-])CN1CCN(CC(=O)[O-])CCN(CC(=O)[O-])CCN(CC(=O)[O-])CC1.[Gd+3] [Gd-DOTA]
